The text below walks through data of patent US20240317777A1, “NOVEL MACROCYCLIC AMINOPYRAZOLE COMPOUNDS AS CDK2 INHIBITORS” (Accutar Biotechnology Inc., priority 2023, published 2024).

Holding throughout (assay type): cell-based
For experiment [1], the system named is CCNE1-amplified OVCAR3 cells. In words: Cell growth inhibition of CCNE1-amplified OVCAR3 cells (CellTiter-Glo). Particulars: Homo sapiens, OVCAR-3, 144 h, 6 days. The method, then: Cell Growth Inhibition of CCNE1-Amplified OVCAR3 Cells
(§1) OVCAR3 cells were seeded in 96-well plates at 2000 cells/well in 90 μl of RPM11640 growth medium containing 10% FBS and 1% Penicillin Streptomycin, and then incubated at 37° C. overnight. The following day, the test compound was administered to the cells by using 1000× compound stock solution prepared in DMSO at various concentrations. 1000× compound stock solution was first diluted in culturing medium to 10x, then 10 uL compound medium was added to each well in the cell plates. After administration of the compound, the cells were then incubated at 37° C. for 6 days. Upon completion, the plates were equilibrated at room temperature for approximately 10 minutes. 100 ul of CellTiter-Glo® Reagent (Promega) was added to each well. The plates were then incubated at room temperature for 10 minutes and luminescence was recorded by EnSpire plate reader (PerkinElmer).
(In ATP-based viability assays light output follows the ATP content of the culture.)

The next experiment concerns CCNE1-normal SKOV3 cells. In words: Cell growth inhibition of CCNE1-normal SKOV3 cells (CellTiter-Glo). Particulars: Homo sapiens, SK-OV-3, 144 h, 6 days. The method, then:
Cell Growth Inhibition of CCNE1-Normal SKOV3 Cells
as §1, with “SKOV3 cells were obtained from American Type Culture Collection (ATCC, HTB-77). SKOV3” for “OVCAR3”, “1000” for “2000”

Experiment [2] concerns Phospho-Rb (Ser807/811) in OVCAR3 cells. In words: Phospho-Rb expression inhibition in OVCAR3 cells quantified by In Cell Western. The conditions noted are these: Homo sapiens, OVCAR-3, 24 hours, read-out: OVCAR-3 pRb IC50. The protocol:
Phospho-Rb Expression Inhibition in OVCAR3 Cells Quantified by in Cell Western
OVCAR3 cells were obtained from American Type Culture Collection (ATCC, HTB-161). OVCAR3 cells were plated in 96-well plates (VWR #10062-900, or Corning #3904) in 90 uL culture medium at a density of 20,000 cells/well in the RPM11640 growth medium containing 10% FBS and 1% Penicillin Streptomycin, and then incubated at 37° C. overnight. The following day, the test compound was administered to the cells by using 1000× compound stock solution prepared in DMSO at various concentrations. 1000× compound stock solution was first diluted in culturing medium to 10x, then 10 uL compound medium was added to each well in the cell plates. After administration of the compound, the cells were then incubated at 37° C. for 24 hours. Upon completion, the cells were washed with PBS briefly. 150 uL/well of 4% formaldehyde was added and the plates were incubated at room temperature for 20 mins. The cells were washed with PBS briefly, and permeabilized with 150 uL/well of ice cold 100% methanol for 10 mins. The cells were washed with PBS briefly and blocked with 100 uL/well LI-COR blocking buffer for 1 hr at room temperature with gentle shaking. The cells were incubated overnight at 4° C. with 50 uL primary antibody rabbit anti-Phospho-Rb (Ser807/811) (1:500, Cell Signaling, #8516) and anti-Rb (1:200, Santa Cruz, sc-73598) diluted in Intercept Blocking Buffer (LI-COR, #927-60001) containing 0.1% Tween 20. The next day, the cells were washed with 200 uL PBS containing 0.1% Tween 20, 5×5 mins at room temperature with gentle shaking, and incubated with 50 uL secondary antibody, IRDye® 800CW Goat anti-Rabbit IgG (1:1000, LI-COR, #926-32211) and IRDye® 680RD Goat anti-Mouse IgG (1:1000, LI-COR, #926-68070), in LI-COR blocking buffer with 0.2% Tween 20 for 1 hr at room temperature with gentle shaking. The cells were washed with 200 uL PBS containing 0.1% Tween 20, 5×5 mins at room temperature with gentle shaking. The cells were washed with PBS for 5 mins. 100 uL fresh PBS was added to each well and the plates were imaged on a LI-COR Odyssey CLX plate reader.

SMILES strings stand for the structures. pIC50: −log10 of the molar value. Bounds are passed on as bounds.

For the molecule `CC1CCCOc2cc(ccn2)Nc2cc([nH]n2)[C@H]2CC[C@H](C2)OC(=O)N1` (mixture of isomers) [Compound 8, (1^1S,1^3R,Z)-9-methyl-2^1H-5,12-dioxa-3,10-diaza-4(4,2)-pyridina-2(3,5)-pyrazola-1(1,3)-cyclopentanacyclododecaphan-11-one], the results for the negative-log IC50 (pIC50) (in experiment [1]; with CCNE1-normal SKOV3 cells; in experiment [2]) were 7.30 to 8.00, less than 5.90 and 8.00 to 8.70, respectively.
Taken in the same sequence, the figures for `O=C1NC2CC(C2)CC(F)(F)c2cc(ccn2)Nc2cc(n[nH]2)[C@H]2CC[C@H](C2)O1` (single isomer, unassigned) [Compound 169, (1^1S,1^3R,7^1R,7^3S,Z)-5,5-difluoro-2^1H-10-oxa-3,8-diaza-4(4,2)-pyridina-2(3,5)-pyrazola-1(1,3)-cyclopentana-7(1,3)-cyclobutanacyclodecaphan-9-one] were 6.60 to 7.30, less than 5.90 and 7.30 to 8.00.
Regarding `O=C1NCCCCOc2cc(ccn2)Nc2cc([nH]n2)[C@H]2CC[C@H](C2)O1` [Compound 1, (1^1S,1^3R,Z)-2^1H-5,12-dioxa-3,10-diaza-4(4,2)-pyridina-2(3,5)-pyrazola-1(1,3)-cyclopentanacyclododecaphan-11-one], the pIC50 (commonly −log10 of the IC50, conventionally taken in molar units) in experiment [1] is 7.30 to 8.00; in the experiment on CCNE1-normal SKOV3 cells, less than 5.90; in experiment [2], 7.30 to 8.00.
Turning to `O=C1NCCCCCOc2cc(ccn2)Nc2cc([nH]n2)[C@H]2CC[C@H](C2)O1` [Compound 3, (1^1S,1^3R,Z)-2^1H-5,13-dioxa-3,11-diaza-4(4,2)-pyridina-2(3,5)-pyrazola-1(1,3)-cyclopentanacyclotridecaphan-12-one], the negative-log IC50 (pIC50) was 6.60 to 7.30 in experiment [1], less than 5.90 in the experiment on CCNE1-normal SKOV3 cells and 7.30 to 8.00 in experiment [2].
For `O=C1NC23CC(COc4cc(ccn4)Nc4cc([nH]n4)[C@H]4CC[C@H](C4)O1)(C2)C3` [Compound 18, (1^1S,1^3R,Z)-2^1H-5,10-dioxa-3,8-diaza-4(4,2)-pyridina-2(3,5)-pyrazola-7(1,3)-bicyclo[1.1.1]pentana-1(1,3)-cyclopentanacyclodecaphan-9-one] the same measures were 6.60 to 7.30, less than 5.90 and 6.60 to 7.30.
For `O=C1NC23CC(CCOc4cc(ccn4)Nc4cc([nH]n4)[C@H]4CC[C@H](C4)O1)(C2)C3` [Compound 22, (1^1S,1^3R,Z)-2^1H-5,11-dioxa-3,9-diaza-4(4,2)-pyridina-2(3,5)-pyrazola-8(1,3)-bicyclo[1.1.1]pentana-1(1,3)-cyclopentanacycloundecaphan-10-one] the same measures were not below 8.70, 7.30 to 8.00 and not below 8.70.
With `C[C@H]1CCCOc2cc(ccn2)Nc2[nH]nc(c2Cl)[C@H]2CC[C@H](C2)OC(=O)N1` [Compound 184, (1^1S,1^3R,9S,E)-2^4-chloro-9-methyl-2^1H-5,12-dioxa-3,10-diaza-4(4,2)-pyridina-2(3,5)-pyrazola-1(1,3)-cyclopentanacyclododecaphan-11-one], the pIC50 in experiment [1] and in experiment [2] was less than 6.60 throughout.
In the case of `[2H]C1([2H])Oc2cc(ccn2)Nc2[nH]nc(c2Cl)[C@H]2CC[C@H](C2)OC(=O)NC2CC1C2` [Compound 222, (1^1S,1^3R,7^1R,7^3S,E)-24-chloro-2^1H-5,10-dioxa-3,8-diaza-4(4,2)-pyridina-2(3,5)-pyrazola-1(1,3)-cyclopentana-7(1,3)-cyclobutanacyclodecaphan-9-one-6,6-d2], the results for the negative logarithm of the IC50 (pIC50) in experiment [1] and in experiment [2] were less than 6.60 and 6.60 to 7.30, respectively.
Taken in the same sequence, the figures for `C[C@H]1CCCOc2cncc(n2)Nc2cc(n[nH]2)[C@H]2CC[C@H](C2)OC(=O)N1` [Compound 233, (1^1S,1^3R,9S,Z)-9-methyl-2^1H-5,12-dioxa-3,10-diaza-4(2,6)-pyrazina-2(3,5)-pyrazola-1(1,3)-cyclopentanacyclododecaphan-11-one] were not below 8.70 and not below 8.70.
Taken in the same sequence, the figures for `C[C@H]1CCCOc2cncc(n2)Nc2[nH]nc(c2F)[C@H]2CC[C@H](C2)OC(=O)N1` [Compound 234, (1^1S,1^3R,9S,E)-2^4-fluoro-9-methyl-2^1H-5,12-dioxa-3,10-diaza-4(2,6)-pyrazina-2(3,5)-pyrazola-1(1,3)-cyclopentanacyclododecaphan-11-one] were 7.30 to 8.00 and 8.00 to 8.70.
Taken in the same sequence, the figures for `O=C1NC2CC(COc3cncc(n3)Nc3cc(n[nH]3)[C@H]3CC[C@H](C3)O1)C2` [Compound 235, (1^1S,1^3R,7^1R,7^3S,Z)-2^1H-5,10-dioxa-3,8-diaza-4(2,6)-pyrazina-2(3,5)-pyrazola-1(1,3)-cyclopentana-7(1,3)-cyclobutanacyclodecaphan-9-one] were not below 8.70 and not below 8.70.
Turning to `O=C1NC2CC(COc3cncc(n3)Nc3[nH]nc(c3F)[C@H]3CC[C@H](C3)O1)C2` [Compound 236, (1^1S,1^3R,7^1R,7^3S,E)-2^4-fluoro-2^1H-5,10-dioxa-3,8-diaza-4(2,6)-pyrazina-2(3,5)-pyrazola-1(1,3)-cyclopentana-7(1,3)-cyclobutanacyclodecaphan-9-one], the figures for the pIC50 in experiment [1] and in experiment [2] were 7.30 to 8.00 and 8.00 to 8.70, respectively.
Taken in the same sequence, the figures for `C[C@H]1CCCOc2cc(ccn2)Nc2[nH]nc(c2F)C2C[C@@H](F)[C@H](C2)OC(=O)N1` [Compound 237, (1^1R,1^3S,1^4R,9S,E)-1^4,2^4-difluoro-9-methyl-2^1H-5,12-dioxa-3,10-diaza-4(4,2)-pyridina-2(3,5)-pyrazola-1(1,3)-cyclopentanacyclododecaphan-11-one] were 6.60 to 7.30 and 7.30 to 8.00.
For the molecule `C[C@H]1CCCOc2cc(ccn2)Nc2[nH]nc(c2F)C2C[C@H](F)[C@@H](C2)OC(=O)N1` [Compound 238, (1^1S,1^3R,1^4S,9S,E)-1^4,2^4-difluoro-9-methyl-2^1H-5,12-dioxa-3,10-diaza-4(4,2)-pyridina-2(3,5)-pyrazola-1(1,3)-cyclopentanacyclododecaphan-11-one], the negative-log IC50 (pIC50) in experiment [1] was 6.60 to 7.30; in experiment [2] it was 7.30 to 8.00.
Taken in the same sequence, the figures for `C[C@H]1CCCOc2nccc(n2)Nc2cc(n[nH]2)[C@H]2CC[C@H](C2)OC(=O)N1` [Compound 241, (1^1S,1^3R,9S,Z)-9-methyl-2^1H-5,12-dioxa-3,10-diaza-4(4,2)-pyrimidina-2(3,5)-pyrazola-1(1,3)-cyclopentanacyclododecaphan-11-one] were not below 8.70 and not below 8.70.
Taken in the same sequence, the figures for `C[C@H]1CCCOc2nccc(n2)Nc2[nH]nc(c2F)[C@H]2CC[C@H](C2)OC(=O)N1` [Compound 256, (1^1S,1^3R,9S,E)-2^4-fluoro-9-methyl-2^1H-5,12-dioxa-3,10-diaza-4(4,2)-pyrimidina-2(3,5)-pyrazola-1(1,3)-cyclopentanacyclododecaphan-11-one] were 7.30 to 8.00 and 8.00 to 8.70.
Taken in the same sequence, the figures for `C[C@@H]1CC23CC(C2)(C3)NC(=O)O[C@@H]2CC[C@@H](C2)c2cc(n[nH]2)Nc2cc(nc(C(F)F)c2)O1` [compound 24] were less than 6.60 and less than 6.60.
For `C[C@H]1CC23CC(C2)(C3)NC(=O)O[C@@H]2CC[C@@H](C2)c2cc(n[nH]2)Nc2cc(nc(C(F)F)c2)O1` [compound 25], the negative logarithm of the IC50 (pIC50) in experiment [1] and in experiment [2] was less than 6.60 each time.
